Measurements published in patent US6015560A, “Antibody recognizing endothelial cell ligand for leukocyte CR3” (priority 1995, dated 2000).

What was measured:
neutrophils [1] = assay: Inhibition of 125I-Factor X binding to neutrophils; set-up: species or system human
Method: Human Factor X (Sigma or Hematologic Technologies Inc.) was labeled with ^125 I using Iodogen (Pierce Chemical Co.) Human neutrophils were isolated from heparinized blood according to the manufacturer's specification using Neutrophil Isolation Medium (Cardinal Associates, Santa Fe, N.Mex.) and washed three times with 5 mM EDTA-phosphate-bufferedsaline (PBS), pH 7.2, at 4° C. To eliminate platelet contamination,neutrophils were incubated with autologous serum containing 5 mM EDTA for 30 mins. at 37° C., washed three times with ice-cold PBS, pH 7.2, and resuspended in RPMI 1640 tissue culture medium (Whittaker M. A. Bioproducts, Walkersville, Md.) at 4° C. Binding of ^125 I-Factor X to neutrophils was measured based on a method described by Altieri et al. (1991) Science 254: 1200-1202. Briefly, 200 μl of neutrophils (1.5×10^7 /ml) were supplemented with 17.5 μl of 50 mM CaCl2, stimulated with 3.5 μl of 100 μM NH2 -formyl-Met-Leu-Phe (Sigma), and mixed with 30 μl of 10.3 μg/ml ^125 I-Factor X and 100 μl of 1.75 mM of peptide. […] Aliquots of the supernatant (cell free ^125 I-Factor X) and the cell pellet (cell bound ^125 I-Factor X) were counted in a gamma-counter. Nonspecific binding (~50,000 cpm) was determined by adding a 100 fold excess of unlabeled Factor X, and subtracted from total radioactivity (~500,000 cpm for controls).

[2] = test system: human umbilical vein endothelial cells; assay: Adherence of neutrophils to cultured (TNF-stimulated) endothelial cells; type: cell-based
Method: Human umbilical vein endothelial cells (HUVEC, first passage, Clonetics, San Diego, Calif.) were subcultured at confluence into Terasaki tissue culture wells. After 24 hours, confluent monolayers were used for adherence assays. Monolayers were stimulated with 10 ng/ml TNF alpha (Boehringer Mannheim, Indianapolis, Ind.) at 37° C. for four hours. 30 μl of human neutrophils (10^6 /ml) were labeled with fluorescein by the method of Lo et al. (1991), J. Exp. Med. 173 1493-1500, and preincubated for 15 minutes at 37° C. with 20 μl of peptides (0.5 mM in HAP) or HAP (phosphate buffered saline containing 0.5 mg/ml human serum albumin, 3 mM glucose, and 0.3 U/ml aprotinin) as a control buffer. For some experiments, endothelial cells were pretreated from 10 minutes with Factor X or antibodies against Factor X receptor (EPR-1; Altieri et al. (1990), J. Immunol. 145, 246-253) 12H1 and 9D4 (obtained from Dr. D. Altieri, Scripps Research Institute, Lajolla, Calif.) and then washed. Neutrophils were allowed to adhere to the monolayer for 15 mins. at 37° C. and unbound cells were removed by submersion of the plate in PBS buffer. The number of adherent neutrophils was counted in a 40× microscope field and expressed as a percentage of adherence in control wells with neutrophils treated with HAP buffer alone. The mAb IB4 against CD18 (50 μg/ml; Merck Inc., Rahway, N.J.) served as a positive control.
(§1) The procedures for determining the neutrophil adherence to cultured endothelial cells and the transendothelial migration of neutrophils were identical with those of Example 9. Control values were the same as those shown in Example 9.

leukocytes in CSF = assay: Leukocyte and protein influx into CSF of rabbits challenged with pneumococci; type: in vivo, rabbit; conditions: intravenous, meningitis model
Source text: This inhibitory activity implies that antibodies to FHA which bind to any of the three Factor X regions would disturb leukocyte recruitment. This is to be distinguished from anti-FHA antibodies that bind to endothelia by recognizing an integrin receptor which is an endothelial cell component (see below). […] This is shown in FIG. 6 where various doses of antibody were given to rabbits and the number of leukocytes recruited into the cerebrospinal fluid in response to pneumonoccal meningitis was determined.
Rabbits were inoculated intracisternally with 10^8 pneumococci and the generation of an inflammatory response in cerebrospinal fluid (CSF) was followed over time by measuring the appearance of leukocytes and protein in CSF. Animals were treated with the antibodies intravenously (2 mg/kg of culture supernatant fluid) at the same time as the intracisternal challenge was given.

neutrophils [3] = assay: Transendothelial migration of neutrophils; type: cell-based, human; conditions: native FHA 1 μM
Method: Transendothelial migration of neutrophils was studied based on a method described by Muller et al. (1992), J. Exp. Med. 176: 819-828. Briefly, human neutrophils suspended in ice-cold Hanks balanced salt solution (HBSS) containing Ca^++ and Mg^++ (Sigma) were fluoresceinated by adding 3.3 μl/ml 5-(and 6-)carboxyfluorescein diacetate, succinimidyl ester (CFSE, Molecular Probes Inc., Oreg.). After incubation for 30 mins. on ice, neutrophils were washed twice in cold HBSS with Ca^++ and Mg^++ and resuspended in cold Medium 199 (M199, Sigma) to a final concentration of 10^6 /ml. Human umbilical vein endothelial cells were subcultured at confluence into 96-well tissue culture plates (Becton Dickinson Labware, Lincoln Park, N.J.) that were coated with hydrated collagen gel (Vitrogen; Collagen Corporation, Palo Alto, Calif.) and fibronectin. Endothelial cells were stimulated with 10 ng/ml TNF-alpha for 4 hours and washed three times with warm M199. Neutrophils (10^6 /ml) were preincubated with 0.01 mM of peptides or with 1 μM of native FHA in M199 for 5 mins. on ice before they were added in 100 μl aliquots to the endothelial cells. For positive control, neutrophils were pre-incubated with 25 μg/ml anti-CD18 mAb IB4. For negative control, neutrophils were treated with 25 μg/ml mAb W6/32 against HLA class I antigen (Dako, Carpinteria, Calif.). The cells were incubated for 1 hour at 37° C., 5% CO2. To terminate transmigration, the supernatant fluid was aspirated and the wells were filled with warm 1 mM EGTA (Sigma) in HBSS without Ca and Mg. The plates were covered with plate sealers (Dynatech, Alexandria, Va.) and centrifuged in an inverted position at 250 g for 3 mins. at room temperature. To remove residual non-transmigrated neutrophils from the endothelial cells, monolayers were washed twice with 200 μl of warm Hanks solution without Ca and Mg. Fluorescence was quantitated using a fluorescence counter (Millipore Cytofluor™ 2300). The percentage of transmigrated neutrophils was determined by comparing the amount of fluorescence of test wells with that measured in collagen- and fibronectin-coated wells without endothelial cells. […] Percent inhibition of transendothelial migration of neutrophils was calculated by comparing the number of transmigrated cells in wells containing neutrophils treated with peptide to neutrophils treated with M199 alone and arbitrarily set at 100% transendothelial migration (TEM).
as §1

## filamentous hemagglutinin [native FHA]
Neutrophils [1]
  IC50: 0.1 µM
Neutrophils [1]; native FHA 0.3 μM
  inhibition of 125I-Factor X binding to neutrophils: 70±4%
[2]; 25 μg/ml=0.3 μM
  reduction of neutrophil binding to HUVEC: 51±8%
[2]; 50 ug/ml, 0.2 uM
  inhibition of adherence of neutrophils to cultured endothelial cells: 51±7%
[2]; concentration dependence
  maximal inhibition of neutrophil attachment: ~ 50%
Leukocytes in CSF
  leukocyte influx into / inflammation of CSF (in words): decreases inflammation
Neutrophils [3]
  % Inhibition of TEM: 82±1%
Neutrophils [3]; listed as FHA
  % Inhibition of TEM: 82 ± 1%
Neutrophils [3]; listed as Intact FHA
  % Inhibition of TEM: 82±1%
